PubChem BioAssay AID1963865 (Molecular Pharmacology Branch, DTP, NCI, 2024)

System: KRAS PDC multicell spheroid viability
Assay: Anticancer human tumor 825966-067-R-J1-PDC patient-derived colon carcinoma cell line growth inhibition [KRAS2]
Details: for IC50: curve of first compound; for viability, T/C: stronger effect = lower value
Description: Multicellular complex tumor spheroid response to RAS pathway inhibitors in combination with a targeted agents in patient-derived cell lines with oncogenic KRAS variants from multiple cancer types
A high-throughput screen of multi-cell type tumor spheroids was designed to identify active combinations of targeted small molecules and KRAS pathway inhibitors. Complex spheroids include a stromal component modeled by human endothelial cells (HUVEC) and fibroblasts modeled by human mesenchymal stem cells (MSCs). The concentration ranges selected for each drug and investigational agent were based upon clinically achievable concentrations if the clinical Cmax of the agent was known.
Compounds. The drugs and investigational agents: BI-3406 (NSC825286), BAY-293 (NSC824723), batoprotafib (TNO155; NSC825523), sotorasib (AMG 510; NSC818433), MRTX1257 (NSC819558), elimusertib (BAY 1895344; NSC800525), molibresib (GSK525762; NSC774829), temuterkib (LY3214996; NSC803410), venetoclax (NSC766270), alisertib (NSC759677), olaparib (NSC753686), talazoparib (NSC767125), erdafitinib (NSC781556), ipatasertib (NSC767898), cabozantinib (NSC761068), nintedanib (NSC756659), abemaciclib (NSC768073), docetaxel (NSC628503), trametinib (NSC758246), and sapanisertib (NSC764658) were obtained from the National Cancer Institute (NCI) Developmental Therapeutics Program Chemical Repository. The FDA-approved anticancer drug set is available from the Developmental Therapeutics Program. […] The stock solutions were prepared in dimethyl sulfoxide (DMSO, Sigma-Aldrich, St. Louis, MO, cat. D2650) at 800-fold the tested concentration and stored at -70 degrees C prior to their use. All drugs and investigational agents were tested over a range starting from a high concentration at or near the clinical Cmax and decreasing in half-log increments. If the clinical Cmax for an agent had not been determined, the highest concentration tested was 10 microM.
Cell Culture. All cells were maintained in an incubator at 37 degrees C and 5% CO2 with 95% humidity. The PDC lines were cultured according to standard operating procedures established by the NCI PDMR (https://pdmr.cancer.gov/sops/default.htm). Briefly, all PDCs were thawed and cultured in Matrigel-coated flasks prepared with a working solution of 1X Ham's F-12 nutrient mix, without supplementation (Invitrogen, Waltham, MA, cat. 11765054), 100 U/mL penicillin-streptomycin (Invitrogen, cat. 15140122), and 2.5% Matrigel (Corning Inc., Corning, NY, cat. 354248) for the first three passages. All PDCs were cultured in complete DMEM/F-12 media containing advanced DMEM/F-12 (Invitrogen, cat. 12634028), 4.9% defined fetal bovine serum, heat inactivated (HyClone Laboratories Inc., Logan, UT, cat. SH30070.03HI), 389 ng/mL hydrocortisone (Sigma-Aldrich, cat. H4001), 9.7 ng/mL human EGF recombinant protein (Invitrogen, cat. PHG0313), 23.4 microg/mL adenine (Sigma-Aldrich, cat. A2786), 97.3 U/mL penicillin-streptomycin (Invitrogen, cat. 15140122), 1.9 mM L-glutamine (Invitrogen, cat. 25030081), and 9.7 microM Y-27632 dihydrochloride (Tocris Bioscience, Bristol, United Kingdom, cat. 1254). The PDCs were cultured in complete DMEM/F12 media without 9.7 microM Y-27632 dihydrochloride for at least two passages prior to the screen. The established cell line HOP-62 was cultured in RPMI 1640 medium, HEPES (Invitrogen, cat. 22400105) with 10% defined fetal bovine serum (HyClone Laboratories Inc., cat. SH30070.03) and 2 mM L-glutamine (Invitrogen, cat. 25030081). The pooled donor HUVEC were cultured in endothelial cell growth medium 2 (PromoCell, Heidelberg, Germany, cat. C-22011) and the hMSC were cultured in mesenchymal stem cell growth medium 2 (PromoCell, cat. C-28009). For all experiments, HUVEC and hMSC were used at passages </=5, while the malignant cell lines were used at passages </=15. […]

[1] = second compound 0.1 µM, first compound 0.0316 µM
[2] = second compound 0.1 µM, first compound 0.1 µM
[3] = second compound 0.1 µM, first compound 0.316 µM
[4] = second compound 0.1 µM, first compound 1 µM
[5] = second compound 0.1 µM, first compound 3.16 µM
[6] = second compound 0.1 µM, first compound 10 µM
[7] = second compound 0.316 µM, first compound 0.0316 µM
[8] = second compound 0.316 µM, first compound 0.1 µM
[9] = second compound 0.316 µM, first compound 0.316 µM
[10] = second compound 0.316 µM, first compound 1 µM
[11] = second compound 0.316 µM, first compound 3.16 µM
[12] = second compound 0.316 µM, first compound 10 µM
[13] = second compound 1 µM, first compound 0.0316 µM
[14] = second compound 1 µM, first compound 0.1 µM
[15] = second compound 1 µM, first compound 0.316 µM
[16] = second compound 1 µM, first compound 1 µM
[17] = second compound 1 µM, first compound 3.16 µM
[18] = second compound 1 µM, first compound 10 µM
[19] = second compound 3.16 µM, first compound 0.0316 µM
[20] = second compound 3.16 µM, first compound 0.1 µM
[21] = second compound 3.16 µM, first compound 0.316 µM
[22] = second compound 3.16 µM, first compound 1 µM
[23] = second compound 3.16 µM, first compound 3.16 µM
[24] = second compound 3.16 µM, first compound 10 µM
[25] = second compound 10 µM, first compound 0.0316 µM
[26] = second compound 10 µM, first compound 0.1 µM
[27] = second compound 10 µM, first compound 0.316 µM
[28] = second compound 10 µM, first compound 1 µM
[29] = second compound 10 µM, first compound 3.16 µM
[30] = second compound 10 µM, first compound 10 µM
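Further: spheroids exposed to compounds for 7 days.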
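Wherever viability, T/C is given: 100% = DMSO vehicle control viability.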

SMILES	IC50 (second compound 0.1 µM)	IC50 (second compound 0.316 µM)	IC50 (second compound 1 µM)	IC50 (second compound 3.16 µM)	IC50 (second compound 10 µM)	viability, T/C [1]	viability, T/C [2]	viability, T/C [3]	viability, T/C [4]	viability, T/C [5]	viability, T/C [6]	viability, T/C [7]	viability, T/C [8]	viability, T/C [9]	viability, T/C [10]	viability, T/C [11]	viability, T/C [12]	viability, T/C [13]	viability, T/C [14]	viability, T/C [15]	further results
COC(=O)c1ccc2c(C(=Nc3ccc(N(C)C(=O)CN4CCN(C)CC4)cc3)c3ccccc3)c(O)[nH]c2c1 + C=CC(=O)N1CCN(c2nc(=O)n(-c3c(C)ccnc3C(C)C)c3nc(-c4c(O)cccc4F)c(F)cc23)C(C)C1	633 nM	738 nM	513 nM	472 nM	444 nM	83.3%	88.2%	72.2%	35.4%	0.37%	0.76%	76.2%	82.6%	77.7%	40%	0.17%	0.12%	77.3%	75.7%	85.6%	viability, T/C [16]: 9.2%; viability, T/C [17]: 0.13%; viability, T/C [18]: 0.13%; viability, T/C [19]: 83%; viability, T/C [20]: 76.4%; viability, T/C [21]: 71.6%; viability, T/C [22]: 9.78%; viability, T/C [23]: 1.23%; viability, T/C [24]: 0.13%; viability, T/C [25]: 71.2%; viability, T/C [26]: 67%; viability, T/C [27]: 68.7%; viability, T/C [28]: 5.2%; viability, T/C [29]: 0.99%; viability, T/C [30]: 0.17%
O=C(c1cc(Cc2n[nH]c(=O)c3ccccc23)ccc1F)N1CCN(C(=O)C2CC2)CC1 + C=CC(=O)N1CCN(c2nc(=O)n(-c3c(C)ccnc3C(C)C)c3nc(-c4c(O)cccc4F)c(F)cc23)C(C)C1	> 10000 nM	> 10000 nM	> 10000 nM	> 10000 nM	> 10000 nM	97.5%	89.9%	107%	71.9%	71.1%	77.9%	90.2%	96.8%	77.2%	81.9%	65.7%	80.9%	100%	84.3%	77.8%	viability, T/C [16]: 62.8%; viability, T/C [17]: 70.8%; viability, T/C [18]: 88.1%; viability, T/C [19]: 68.3%; viability, T/C [20]: 90.3%; viability, T/C [21]: 78.4%; viability, T/C [22]: 75.8%; viability, T/C [23]: 73.3%; viability, T/C [24]: 70.4%; viability, T/C [25]: 96.4%; viability, T/C [26]: 82.3%; viability, T/C [27]: 90.8%; viability, T/C [28]: 72%; viability, T/C [29]: 66.5%; viability, T/C [30]: 91.7%
